Converted amounts (≈) assume the structure as drawn.

The test system of the assay is E. coli strain DH5α. As to the kind of experiment: Minimal inhibitory concentration (MIC) against E. coli. It is filed as cell-based. As to conditions: Escherichia coli; 2×YT broth, 37° C., 18 hours; lowest drug concentration that inhibited visible growth. The procedure: Minimal inhibitory concentrations (MIC) of inhibitors against E. coli strain DH5α (Genotype; F-φ80dlacZΔM15Δ(lacZYA-argF)U169 deoR recA1 endA1 hsdR17(rk^−,mk^+)phoA supE44λ^− thi-1 gyrA96 relA1) obtained from GibcoBRL Life Technologies, Enterobacter cloacae (American Type Culture Collection number 13047), Klebsiella pneumoniae (American Type Culture Collection number 13883) or Staphylococcus capitis (American Type Culture Collection number 35661) were determined as follows. Stock solutions of test compound (Compounds 1 and 2 from Examples 1 and 2 respectively (both isomer A)) and three standard laboratory antibiotics, carbenicillin (Sigma, catalogue No. C3416), kanamycin (Sigma, catalogue No. K4000) and chloramphenicol (Sigma, catalogue No. C1919), were prepared by dissolution of each compound in dimethylsulfoxide at 10 mM. […] Cell densities were adjusted to absorbance at 660 nm (A660)=0.1; the optical density-standardised preparations were diluted 1:1000 in 2×YT broth; and each well inoculated with 0.05 ml of the diluted bacteria. […] The MIC (μM) was recorded as the lowest drug concentration that inhibited visible growth.

`CCCC[C@H](CN(O)C=O)C(=O)N(C)C1CCN(C)CC1` [Example 7] returned an MIC of 12.5 µM (≈ 3.74 µg/mL).

Usually MIC stands for the least concentration at which growth counts as inhibited.

These data come from patent US6908911B1, “Antibacterial agents” (British Biotech Pharmaceuticals Limited, priority 1999, dated 2005).
